The nature of data set [1]: Example 10: body weight of HT-29 tumor-bearing nude mice. It is filed as in vivo. The settings on record: HT-29 model, DDP 5 mg/kg i.p. QW × 3, R01 18 mg/kg i.g. BID × 28. The method, then: On D1 of the assay, the HT-29 cells in the logarithmic growth phase were collected, counted and resuspended in serum-free McCoy, and the cell concentration was adjusted to 4×10^7 cells/mL. The cells were pipetted with a pipette to disperse them evenly, and the cells were put into a 50-mL centrifuge tube, which was placed in an ice box. A 1-mL syringe was used to draw the cell suspension, which was injected subcutaneously into the axilla of the front right limb of a nude mouse. Each animal was inoculated with 100 μL (4×10^6 cells/mouse) to establish a HT-29 transplanted tumor model in nude mice. After the inoculation, the animal status and tumor growth were regularly observed. On D12, the tumor diameter was measured using an electronic vernier caliper. The data were input into an Excel spreadsheet to calculate the tumor volume. Tumor-bearing mice in good health and with similar tumor volumes (103 to 179 mm^3) were selected and divided into groups using randomized block method. After the start of the assay, the tumor diameter was measured regularly, the tumor volume was calculated, and the animal body weight was also weighed and recorded.

Data set [2] can be described thus: Example 11: body weight in cisplatin-induced acute kidney damage model. It is filed as in vivo, C57BL/6J mice. The settings on record: mouse, in vivo. The protocol:
42 male C57BL/6J mice (age: 6 to 8 weeks, body weight 18-20 g, certificate number: 11400700238365) were purchased from Si Pei Fu (Beijing) Biotechnology Co., Ltd., and raised in an SPF-grade animal room of the Institute of Materia Medica, Chinese Academy of Medical Sciences, at a temperature of 20 to 25° C., a relative humidity of 40% to 70%, and a cycle of 12 hours of light and 12 hours of dark. The animals had free access to water and food. After 3 days of normal feeding, mice with good physical conditions after the veterinary examination were selected for this assay. Before grouping, a marker was used to mark on the base of the animals' tail. After grouping, each animal was marked with an ear cutout (7 mice in each group).
Assay animals: 42 7-week-old male C57 mice were used for animal testing after an adaptive feeding.
Group 1: blank control group;
The preparation of the R01 formulation administration test solution was the same as that in Example 5: an appropriate amount of the R01 formulation was weighed according to the three dosages set in the assay, respectively, and an appropriate volume of 0.5% CMC-Na aqueous solution was added. The mixture was vortexed and sonicated until mixed evenly, to give the administration test solutions with concentrations of […], respectively, which were ready for use.
Animal testing period: 7 days (excluding adaptive feeding), hereinafter referred to as: D1-D7.
1. The first group was a solvent control group: N=7, all mice were males (the same below); • a) 0.5% solution of sodium carboxymethyl cellulose was gavagely administered from D1 to D6 (twice a day for each animal, with an interval of 8 hours between the morning and the afternoon). • b) Physiological saline was intraperitoneally injected in one-time on D4. • c) On D7, blood was collected from the orbit for euthanasia (300 ul of serum was extracted), the left kidney was fixed in formaldehyde, and the right kidney was preserved in liquid nitrogen (WB study may be carried out).
3) Each animal was weighed before euthanasia, and the weight was recorded. Two kidneys were weighed as soon as possible after euthanasia, and the weight was recorded. Then, the two kidneys were quickly fixed or cryopreserved, and the kidney coefficient of the mouse was calculated (kidney weight/mouse weight).
The body weight of the animals when being grouped for administration in each group was recorded. The body weight and the kidney weight at the end of the assay were also recorded, and the kidney coefficient was calculated. The creatinine and urea nitrogen values in the blood samples sent for testing were recorded. The kidneys were stained with HE and PAS, and the slides were scanned. A report was issued after the pathological analysis.
The assay data were calculated and processed statistically using Microsoft Office Excel 2007 software. Unless otherwise specified, the data were expressed as mean±standard error (Mean±SE), and t-test was used for comparison between two groups.

`N.N.[Cl][Pt][Cl]` [DDP, cisplatin]: the “Mean animal body weight ± SE” value came out at 17.6 ± 0.3 g in data set [1] (D 12 (grouping)); 17.2 ± 0.2 g in data set [1] (D 15); 16.9 ± 0.3 g in data set [1] (D 19); 16.3 ± 0.3 g in data set [1] (D 22); 15.8 ± 0.4 g in data set [1] (D 26); 15.3 ± 0.3 g in data set [1] (D 29). Also, the “Mean animal body weight ± SE” value in data set [1] (D 33) amounted to 14.8 ± 0.4 g; in data set [1] (D 36), 14.8 ± 0.4 g; in data set [1] (D 40), 14.9 ± 0.4 g. The “body weight loss rate” value in data set [1] (D 15) is “(2.6%)”; in data set [1] (D 19), “(3.9%)”; in data set [1] (D 22), “(7.4%)”; in data set [1] (D 26), “(10%)”; in data set [1] (D 29), “(13%)”; in data set [1] (D 33) it was “(16%)”. The “body weight loss rate” value in data set [1] (D 36) is “(16%)”; in data set [1] (D 40) it was “(15%)”.
On to `COC1=C(OC)C(=O)C(CCCCCCCCCCOC(=O)Cc2c(C)n(C(=O)c3ccc(Cl)cc3)c3ccc(OC)cc23)=C(C)C1=O` [compound of formula (I)], for which the “Body weight after the assay, After x (mean)” value in data set [2] (6 mg/kg) was determined as 16.2 g; in data set [2] (18 mg/kg), 16.2 g; in data set [2] (36 mg/kg), 16.1 g. Further, the figures for the “Body weight, Before x- after x” value in data set [2] (6 mg/kg), in data set [2] (18 mg/kg) and in data set [2] (36 mg/kg) were 4.2 g, 4.3 g and 4.4 g, respectively.

(Values after patent US20250270170A1, “2,3-DIMETHOXY-5-METHYL-1,4-BENZOQUINONE ALKYL ALCOHOL DERIVATIVE AND USE THEREOF” (BEIJING ANJIANXI BIO-MEDICAL TECHNOLOGY CO., LTD., priority 2021, published 2025).)
